What all share (format): cell-based, human
The subject of data set [1] is caspase-3/7 in MCF-7 cells. Put plainly: Caspase 3/7 expression, FLICA (FAM-DEVD-FMK) flow cytometry. The following applies: MCF-7, IC25 concentration, 24 h. How it is done: The expression of caspase-3/7 in MCF-7 and MCF-12A cells was determined using the VybrantTM FAM™ Caspase-3 and Caspase-7 Assay Kit (Cat# V35118) (Thermo Fisher Scientific, Ireland). Cells were seeded at a density of 1 × 10^5 in T25 flasks and incubated in routine conditions for 24 h. […] Post-exposure, the cells were harvested for staining.
(§1) Flow cytometry data analysis was performed with the CytExpert package (Ver. 2.4) (Beckman Coulter, USA) and Microsoft^Ⓡ Excel (USA). The mean MFI and percentage cells were calculated using these packages, followed by one-way ANOVA analysis with post hoc Bonferroni correction using GraphPad Prism (Ver. 9.4) (GraphPad, USA).
The expression of caspase-3/7 was analysed in MCF-7 and MCF-12A cells using fluorescent labelled inhibitors of caspase (FLICA): FAM-DEVD-FMK. […] Following the apoptosis induction study, it was of interest to determine whether the complexes were stimulating the executioner caspases triggering the irreversible proteolytic degradation of cells, culminating in cell death. […] These three complexes were selected based on their structural similarities, while incorporating alternative metal centres.
(A flow cytometer gives signals particle by particle.)

The subject of data set [2] is MCF-7 cells. Put plainly: In vitro cytotoxicity assessment, alamar blue assay, 24-h exposure. As for the experimental part:
The MCF-7 (human breast cancer) and MCF-12A (non-tumourigenic human breast) cell lines were obtained from the Technological University Dublin (TUDublin, City Campus) internal cell bank and commercially from the American Type Culture Collection (ATCC), respectively. Both cell lines were cultured using Dulbecco’s Modified Eagle Medium/Nutrient Mixture F-12 Ham (DMEM-F12) (Sigma, Ireland) (Cat# D6421) media. The MCF-7 media was supplemented with 10% Foetal Bovine Serum (Sigma, Ireland) (Cat# F7524) and 1% L-Glutamine (Sigma, Ireland) (Cat# 592020C). The MCF-12A media was supplemented with 5% Equine Serum (Sigma, Ireland) (Cat# H0146) 1.25% L-Glutamine (Sigma, Ireland) (Cat# 592020C), 20 ng/ml Human Epidermal Growth Factor (Thermo Fisher Scientific, Ireland) (Cat# PHG0313), 0.01 mg/ml insulin (Thermo Fisher Scientific, Ireland)(Cat# 12585014) and 500 ng/ml hydrocortisone (Sigma, Ireland) (Cat# H0888). The cells were grown in T75 culture flasks (Sarstedt, Germany) (Cat# 83.3911.002) and were incubated in a 5% CO2 atmosphere at 37 ℃. […] Following the incubation period, the media was removed, and cells were washed with sterile phosphate-buffered saline (PBS). […] Following the exposure period, the drug-containing media was removed, and cells were washed three times with PBS, ensuring complete removal of the test agents. A 5% working solution of Alamar Blue (Thermo Fisher Scientific, Ireland) (Cat# DAL1100) was prepared in dark conditions using unsupplemented cell culture media. 100 μl of the solution was added to each well, and the cells were incubated for 3 h. […] Each exposure was carried out in triplicate plates and was repeated three independent times. The software packages Microsoft^Ⓡ Excel (USA) and GraphPad Prism (Ver. 10.0.3) (GraphPad, USA) were used to analyse the alamar blue data. The treated sample values were first normalised to the negative control values. After normalisation, the mean and standard deviations (SD) were established using Microsoft^Ⓡ Excel. The statistical analysis package GraphPad was then used to determine the IC25 and IC50 concentrations.
(In general: The colour change of resazurin is a common sign of viable cells or microbes.)

Data set [3] concerns MCF-7 cells. Briefly: Detection of reactive oxygen species with H2DCFDA. The following applies: MCF-7, 0.78 μM to 50 μM, over a 6-h period, fold-change compared to the negative control. As for the experimental part:
The production of reactive oxygen species (ROS) was detected in MCF-7 and MCF12A cells using the cell-permeant dye 2',7'- dichlorodihydrofluorescein diacetate (H2DCFDA) (Thermo Fisher Scientific, Ireland) (Cat# D399). Cells were seeded at a density of 1 × 10^4 in 96 well plates and incubated for 24 h. Post-incubation, the media was removed, and cells were washed with PBS. A 10 μM DCFH-DA working solution was prepared using cell culture media, and the cells were incubated with 100 μl of the solution in the dark for 30 min. […] Fluorescent measurements were recorded at 15 min, 30 min, 1 h, and subsequently every hour up to 6 h using a Varioskan Lux™ multimode microplate reader (Thermo Fisher Scientific, Ireland) at an excitation wavelength of 495 nm and emission of 527 nm. The assay was repeated three independent times, using three replicates per plate.
The cells were treated with a concentration range from 0.78 μM to 50 μM, and the response was measured over a 6-h period. This facilitated the evaluation of whether there was a time and/or concentration dependent response from the cells. Hydrogen peroxide (H2O2) was used as a positive control. ROS production is presented as fold-change compared to the negative control.

Data set [4] deals with MCF-7 cells. Put plainly: Apoptosis induction, Annexin V / propidium iodide flow cytometry. The following applies: MCF-7, IC25 concentration, 24 h. How it is done: (§2) MCF-7 and MCF-12A cells were seeded at a density of 1 × 10^5 in T25 flasks (Sarstedt, Germany) and incubated for 24 h at 37 °C with 5% CO2 allowing for attachment. Post -incubation, the media was removed, cells were washed with sterile PBS and then treated using IC25 concentrations established from the in vitro cytotoxicity screen. […] After the exposure period, the cells were enzymatically detached using trypsin, collected and centrifuged at 1200RPM for 10 min. The cells were then washed with PBS, re-centrifuged and resuspended in 1 ml of annexin binding buffer. Prior to staining, the concentration of each sample was adjusted to 1 × 10^6 cells/ml. The cells were stained with 1 μl of propidium iodide (PI) (Sigma, Ireland) (Cat #P4864) and 2 μl of Annexin V (Thermo Fisher Scientific, Ireland) (Cat #A13199). The cells were incubated at room temperature for 15 min prior to analysis. The staining process was completed in the dark to eliminate interference with photo-sensitive reagents. Immediately prior to analysis by flow cytometry, 400 μl of annexin binding buffer was added to each sample. Samples were analysed using a (CytoFLEX) (Beckman Coulter, USA). The AV/PI assay was completed three independent times.
as §1
(§3) The induction of apoptosis was analysed in MCF-7 and MCF-12A cells using the Annexin V and Propidium Iodide assay with flow cytometry. […] The assay allows for the differentiation of viable, apoptotic and necrotic cells based on the selective staining of Annexin V and PI. Annexin V binds to phosphatidylserines externalised to the outer leaflet of the plasma membrane during apoptosis; and PI is a membrane impermeable dye that binds to DNA of necrotic cells with compromised plasma membranes.

The test system of data set [5] is MCF-12A cells. The data set is described as above. The following applies: IC25 concentration, 24 h. How it is done:
as §2, §1, §3

[6] abbreviates: MCF-7, 24-h exposure, 25% reduction in metabolic activity, mean ± SD (N = 3).
Setting [7] is: MCF-7, 24-hour exposure, per one metal centre, mean ± S.D. (N=3).
Where [8] appears, read: MCF-7, 24-hour exposure, per one metal centre, mean ± S.D. (N=3), read-out: IC50 calculated per one metal centre.

Read-outs that look alike come from different tables or passages of the source.

The term IC50 denotes the concentration at which inhibition is half-maximal. Take `O=C([O-])CCCCCCC(=O)[O-].[Cu+2].c1cnc2c(c1)ccc1cccnc12.c1cnc2c(c1)ccc1cccnc12` [Complex 2, [Cu(oda)(phen)2]]: the “Expression of caspase-3/7 (% cells)” value in data set [1] was “highest expression of caspase-3/7”. Further, the “Cytotoxic activity IC25 ± SD” value in data set [2] (setting [6]) is 2.04 ± 0.24 µM. Besides, in data set [2] (setting [7]), the “IC25 calculated per one metal centre” value is given as 2.04 ± 0.24  µM. The IC50 in data set [2] (setting [8]) was 6.72 ± 0.6 µM. Besides, the ROS production result in data set [3] is reported as “moderate production of ROS”.
As for `O=C([O-])CCCCCCC(=O)[O-].[Cu+2].[Cu+2].[O-][Cl+3]([O-])([O-])[O-].[O-][Cl+3]([O-])([O-])[O-].c1cnc2c(c1)ccc1cccnc12.c1cnc2c(c1)ccc1cccnc12.c1cnc2c(c1)ccc1cccnc12.c1cnc2c(c1)ccc1cccnc12` [Complex 1, [Cu2(oda)(phen)4](ClO4)2], in data set [2], the “Cytotoxic activity IC25 ± SD” value was found to be 1.77 ± 0.14 µM and 4.76 ± 0.3 µM corresponded to half-maximal inhibition (IC50). Besides, the “IC25 calculated per one metal centre” value in data set [2] (setting [7]) is 3.54 ± 0.28  µM. In addition, the IC50 in data set [2] (setting [8]) was 9.52 ± 0.6 µM. Also, the ROS production result in data set [3] is given as “moderate production of ROS”.
For “{[Mn2(oda)3(phen)4]^2−[Mn2(oda)(phen)4 (H2O)2]^2+} [Complex 7]”, in data set [1], the “Expression of caspase-3/7 (% cells)” value is recorded as “lowest expression levels of the three complexes”. For the same compound, the “Cytotoxic activity IC25 ± SD” value in data set [2] (setting [6]) was determined as 0.70 ± 0.11 µM. Further, the IC50 in data set [2] (MCF-7, 24-h exposure, 50% reduction in metabolic activity, mean ± SD (N = 3), read-out: Cytotoxic activity IC50 ± SD) is 2.79 ± 0.13 µM; in data set [2] (setting [8]), 11.2 ± 0.52 µM. Besides, in data set [2] (setting [7]), the “IC25 calculated per one metal centre” value is 2.80 ± 0.44  µM. Further, the “Necrotic population (% cells)” value is listed as “necrotic population also observed” in data set [4] and “no necrosis observed” in data set [5]. In data set [5], the “Apoptotic population (% cells)” value was “significantly diminished apoptotic population”. Also, the ROS production result in data set [3] is listed as “potent inducer of ROS, eliciting the highest production in MCF-7 cells”.
`O=C([O-])CCCCCCCCCC(=O)[O-].[Ag+].[Ag+].c1cnc2c(c1)ccc1cccnc12.c1cnc2c(c1)ccc1cccnc12.c1cnc2c(c1)ccc1cccnc12` [Complex 5, [Ag2(udda)(phen)3]]: the “Cytotoxic activity IC25 ± SD” value in data set [2] (setting [6]) turned out to be 5.84 ± 0.12 µM. The “IC25 calculated per one metal centre” value in data set [2] (setting [7]) is 11.68 ± 0.24  µM. For the same compound, in data set [4], the “Necrotic population (% cells)” value is “significant population”. Also, in data set [5], the “Apoptotic population (% cells)” value is “same level of apoptosis” and the “Necrotic population (% cells)” value is recorded as “no necrotic population was observed”. In data set [3], the ROS production result is on record as “lowest production”.
As for `O=C([O-])CCCCCCC(=O)[O-].[Ag+].[Ag+].c1cnc2c(c1)ccc1cccnc12.c1cnc2c(c1)ccc1cccnc12.c1cnc2c(c1)ccc1cccnc12` [Complex 4, [Ag2(oda)(phen)3]], the “Cytotoxic activity IC25 ± SD” value in data set [2] (setting [6]) came out at 5.52 ± 0.89 µM. Further, the “IC25 calculated per one metal centre” value in data set [2] (setting [7]) is reported as 11.04 ± 1.78  µM. In addition, in data set [5], the “Apoptotic population (% cells)” value is on record as “significant decrease in apoptotic cells” and the “Necrotic population (% cells)” value was “virtually no necrotic population”. Besides, the ROS production entry in data set [3] was “lowest production”.
Regarding `c1cnc2c(c1)ccc1cccnc12` [Phen, 1,10-Phenanthroline], in data set [2] (Homo sapiens, MCF7, MCF-7, 24-h exposure, 50% reduction in metabolic activity, mean ± SD (N = 3), read-out: Cytotoxic activity IC50 ± SD), the IC50 came to 33.2 ± 9.36 µM. Besides, in data set [2] (setting [6]), the “Cytotoxic activity IC25 ± SD” value came to 9.02 ± 4.26 µM. In addition, the “IC25 calculated per one metal centre” value in data set [2] (setting [7]) is 9.02 ± 4.26  µM.
